In general, IC50 refers to the midpoint of a concentration-inhibition curve.

Data set [1] in a line: Inhibition of TrxR in human MDA-MB-231 cells. The format is cell-based.
The nature of data set [2]: Antiproliferative activity against human OCSL cell assessed as cell growth inhibition. Format: functional, cell-based.
For data set [3], the species on record is Oryctolagus cuniculus. In words: Antiplatelet activity in rabbit plasma assessed as inhibition of arachidonic acid induced platelet aggregation at 150 uM by aggregometer analysis relative to control. The format is functional. Details: scale not given: the % may be the effect or the level left.
For data set [4], the species on record is Oryctolagus cuniculus. Description: Antiplatelet activity in rabbit plasma assessed as inhibition of arachidonic acid induced platelet aggregation by microplate reader analysis. Format: functional.
The next data set relates to CCRF-CEM. Description: Antiproliferative activity against human CEM cells assessed as cell growth inhibition. Format: functional, cell-based.
A further data set has as its system HCT-116. Description: Antiproliferative activity against human HCT-116 cells assessed as cell growth inhibition. The format is functional, cell-based.
The next data set relates to 8-MG-BA. Description: Antiproliferative activity against human 8-MG-BA cells assessed as cell growth inhibition. The format is functional, cell-based.
The subject of another data set is MOLT-4. Description: Antiproliferative activity against human MOLT-4 cells assessed as cell growth inhibition. The format is functional, cell-based.
For another data set, the target named is 20S proteasome. In words: Inhibition of human 20S proteasome. Format: protein-complex assay.
Data set [5] has as its system HL-60. Description: Antiproliferative activity against human HL-60 cells assessed as cell growth inhibition. Format: functional, cell-based.
The species named for data set [6] is Oryctolagus cuniculus. In words: Antiplatelet activity in rabbit plasma assessed as inhibition of ADP induced platelet aggregation by microplate reader analysis. The format is functional.
The next data set deals with K562. In words: Antiproliferative activity against human K562 cells assessed as cell growth inhibition. The format is functional, cell-based.
Data set [7] deals with HCT-8. Description: Antiproliferative activity against human HCT-8 cells assessed as cell growth inhibition. The format is functional, cell-based.
Another data set has as its system HT-29. Description: Antiproliferative activity against human HT-29 cells assessed as cell growth inhibition. Format: functional, cell-based.
The test system of another data set is AGS. In words: Antiproliferative activity against human AGS cells assessed as cell growth inhibition. Format: functional, cell-based.
A short description of data set [8]: Antiproliferative activity against human OC2 cells assessed as cell growth inhibition. Format: functional, cell-based.
Another data set concerns Jurkat. In words: Antiproliferative activity against human Jurkat cells assessed as cell growth inhibition. Format: functional, cell-based.
Another data set relates to NSCLC. In words: Cytotoxicity against human NSCLC cells assessed as cell growth inhibition. The format is functional, cell-based.
Data set [9] is described as follows: Antiproliferative activity against human A875 cells assessed as cell growth inhibition. Format: functional, cell-based.
In the next data set the test system is DU-145. Description: Antiproliferative activity against human DU-145 cells assessed as cell growth inhibition. The format is functional, cell-based.
A further data set concerns KB. Description: Antiproliferative activity against human KB cells assessed as cell growth inhibition. Format: functional.
For another data set, the system named is MCF7. In words: Antiproliferative activity against human MCF7 cells assessed as cell growth inhibition. The format is functional, cell-based.
A further data set relates to PC-3. Description: Antiproliferative activity against human PC-3 cells assessed as cell growth inhibition. The format is functional, cell-based.
In a further data set the test system is A-375. In words: Antiproliferative activity against human A-375 cells assessed as cell growth inhibition. Format: functional, cell-based.
In the next data set the test system is LN-229. Description: Antiproliferative activity against human LN-229 cells assessed as cell growth inhibition. The format is functional, cell-based.
Data set [10] can be described thus: Antiproliferative activity against human NCI-H660 cells assessed as cell growth inhibition. The format is functional, cell-based.
For data set [11], the system named is HGC-27. In words: Antiproliferative activity against human HGC-27 cells assessed as cell growth inhibition. The format is functional, cell-based.
The next data set concerns MKN-45. In words: Antiproliferative activity against human MKN-45 cells assessed as cell growth inhibition. The format is functional, cell-based.
A further data set deals with P388. Description: Antiproliferative activity against mouse P388 cells assessed as cell growth inhibition. Format: functional, cell-based.
The nature of data set [12]: Antiproliferative activity against human U87 cells assessed as cell growth inhibition. The format is functional, cell-based, U-87MG ATCC. The note with it: U-87 MG.
The test system of data set [13] is MDA-MB-231. Description: Antiproliferative activity against human MDA-MB-231 cells assessed as cell growth inhibition. Format: functional, cell-based.
For another data set, the system named is A549. In words: Antiproliferative activity against human A549 cells assessed as cell growth inhibition. Format: functional, cell-based.
Data set [14] in a line: Cytotoxicity against mouse RAW264.7 cells assessed as cell growth inhibition. Format: toxicity, cell-based.
The test system of data set [15] is Hepatitis B virus. In words: Antiviral activity against HBV infected in human HepG2.2.15 cells assessed as reduction in extracellular HBV DNA level. Format: functional, organism-based.
The test system of data set [16] is Hepatitis B virus. Description: Antiviral activity against HBV infected in human HepG2.2.15 cells assessed as reduction in intracellular HBV DNA level. The format is functional, organism-based.
The next data set has as its system HeLa. Description: Antiproliferative activity against human HeLa cells assessed as cell growth inhibition. Format: functional, cell-based.
A further data set concerns NCI-H1703. Description: Antiproliferative activity against human NCI-H1703 cells assessed as cell growth inhibition. The format is functional, cell-based.
A further data set concerns PC-12. Description: Neuroprotective activity against H2O2-induced cytotoxicity in rat PC-12 cells assessed as cell survival rate preincubated for 24 hrs followed by H2O2 stimulation and measured after 24 hrs by MTT assay relative to control. Format: functional. The following applies: time 48 hrs.
The nature of data set [17]: Inhibition of TrxR in human HGC-27 cells. Format: cell-based.
The subject of data set [18] is HGC-27. Description: Potency index, ratio of piperlongumine IC50 to compound IC50 for antiproliferative activity against human HGC-27 cells. The format is functional.
Data set [19] deals with HGC-27. In words: Potency index, ratio of piperlongumine IC50 to compound IC50 for inhibition of TrxR in human HGC-27 cells. Format: cell-based.
Data set [20] has as its system MDA-MB-231. In words: Antitumor activity against BALB/c mouse xenografted with human MDA-MB-231 cells assessed as tumor growth inhibition at 25 mg/kg, ip measured after 21 days relative to control. The format is functional. The note with it: MDA-MB-231, 504 h, time 21 day, read-out: TGI. For orientation: Xenograft models place foreign cells or tissue in a host animal.

In data set [21] the test system is MDA-MB-231. Description: Potency index, ratio of piperlongumine IC50 to compound IC50 for inhibition of TrxR in human MDA-MB-231 cells. Format: cell-based.
Data set [22] deals with HCT-8. Description: Antiproliferative activity against human HCT-8 cells assessed as cell growth inhibition in presence of piperlongumine. Format: functional, cell-based.
For data set [23], the system named is HL-60. Description: Antiproliferative activity against human HL-60 cells assessed as cell growth inhibition in presence of piperlongumine. The format is functional, cell-based.
For data set [24], the system named is MDA-MB-435. In words: Antiproliferative activity against human MDA-MB-435 cells assessed as cell growth inhibition. Format: functional, cell-based.
For data set [25], the system named is SF-295. Description: Antiproliferative activity against human SF-295 cells assessed as cell growth inhibition in presence of piperlongumine. The format is functional, cell-based.
Data set [26] deals with MDA-MB-435. Description: Antiproliferative activity against human MDA-MB-435 cells assessed as cell growth inhibition in presence of piperlongumine. Format: functional, cell-based.
Data set [27] relates to SF-295. Description: Antiproliferative activity against human SF-295 cells assessed as cell growth inhibition. The format is functional, cell-based.

For `COc1cc(/C=C/C(=O)N2CCC=CC2=O)cc(OC)c1OC` [PIPLARTINE], the IC50 is 1.52 µM in data set [1]; 11.3 µM in data set [2]; 20.8 µM in the data set listed under Oryctolagus cuniculus [4]; 4.4 µM in the data set with CCRF-CEM; 13.9 µM in the data set with HCT-116; 10 µM with 8-MG-BA. The 50% inhibitory concentration (IC50) came out at 1.7 µM with MOLT-4; 15 µM against 20S proteasome; 5.3 µM in the data set with HL-60 [5]; 6710 µM in the data set filed under Oryctolagus cuniculus [6]; 5.7 µM with K562; 2.2 µM with HCT-8 [7]. Moreover, the IC50 with HT-29 stood at 1.4 µM; with AGS it was 20 µM; in data set [8] it was 7.4 µM; in the data set on Jurkat it was 5.3 µM; in the data set with NSCLC, 9.2 µM; in [9], 2.5 µM. Moreover, the half-inhibitory concentration (IC50) with DU-145 worked out at 3.4 µM; in the data set on KB it was 5.6 µM; with MCF7 it was 25 µM; in the data set on PC-3 it was 4.9 µM; in the data set with A-375 it was 2.5 µM; in the data set on LN-229, 10 µM. In addition, the half-inhibitory concentration (IC50) in data set [10] was 0.4 µM; with HGC-27 [11], 7.53 µM; in the data set on MKN-45, 20 µM; in the data set on P388 it was 2.8 µM; in [12], 10 µM; with MDA-MB-231 [13], 1.72 µM. Also, in the data set with A549, the IC50 stood at 10.2 µM. For the same compound, the Activity in the data set filed under Oryctolagus cuniculus [3] was determined as 76.4%.

Regarding `COc1cc(/C=C/C(=O)C2CCC=CC2=O)cc(OC)c1OC` (configuration not stated), the IC50 in data set [14] was 6 µM.

For `C=CC(=O)NC(=O)/C=C/c1cc(OC)c(OC)c(OC)c1`, inhibition against 20S proteasome was half-maximal at 2.6 µM (IC50).

Turning to `CC(=O)Nc1ccc(-c2cc(C)c(=O)n(Cc3ccc(Cl)cc3)n2)cc1`, the IC50 in the data set on Hepatitis B virus [15] came out at 1.5 µM; in the data set with Hepatitis B virus [16], 3 µM.

Regarding `COc1cc(/C=C2\CN(C=O)C/C(=C\c3cc(OC)c(OC)c(OC)c3)C2=O)cc(OC)c1OC`, the 50% inhibitory concentration (IC50) with NSCLC turned out to be 0.6 µM.

As to `COc1cc(/C=C/C(=O)N2CCC=C(C#CC3CC3)C2=O)cc(OC)c1OC`, the half-inhibitory concentration (IC50) in the data set on HeLa turned out to be 1.3 µM; with NCI-H1703 it was 0.7 µM.

In the case of `O=C(/C=C/c1ccc2ccccc2n1)N1CCC=C(Cl)C1=O`, the IC50 in the data set listed under Oryctolagus cuniculus [4] amounted to 0.108 µM; in the data set listed under Oryctolagus cuniculus [6], 3140 µM.

For `COc1cc(/C=C/C(=O)N2CCC=C(Cl)C2=O)cc(OC)c1OC`, the IC50 with A549 amounted to 4.14 µM.

Take `O=C1C=CCCN1C(=O)/C=C/c1ccc2ccccc2n1`: the concentration for half-maximal inhibition (IC50) worked out at 0.13 µM in the data set filed under Oryctolagus cuniculus [4] and 403 µM in the data set filed under Oryctolagus cuniculus [6].

On to `O=C(/C=C/c1cnccn1)N1CCC=C(Cl)C1=O`, for which, in the data set listed under Oryctolagus cuniculus [3], the Activity is given as 100%.

Regarding `COc1cc(OC)c(/C=C2\CC/C(=C\c3cc(OC)c(OC)c(OC)c3)C2=O)c(OC)c1`, the Survival in the data set with PC-12 is given as 80%.

For the compound `COCCOCCOc1ccc(/C=C2\CCC=CC2=O)cc1OC`, the half-maximal inhibitory concentration (IC50) in data set [17] came out at 0.15 µM; in the data set on HGC-27 [11] it was 0.76 µM. Also, the “Ratio IC50” value in the data set with HGC-27 [18] was 10; in the data set with HGC-27 [19], 12.

`O=C1C=CCC/C1=C\c1ccc(Oc2ccc(/C=C3\CCC=CC3=O)cc2)cc1`: in the data set with MDA-MB-231 [20], the inhibition in vivo at 25 mg/kg turned out to be 67%. For the same compound, the IC50 came to 0.16 µM in data set [1] and 0.63 µM in the data set on MDA-MB-231 [13]. Also, in the data set with MDA-MB-231 [21], the Ratio IC50 was 10.

As for `O=c1[nH]cc(F)c(=O)[nH]1` [FLUOROURACIL], the IC50 in the data set with HCT-8 [22] stood at 4.7 µM; with HL-60 [23], 38.1 µM; in the data set with HL-60 [5], 84.7 µM; in the data set with MDA-MB-435 [24] it was 9.19 µM; with HCT-8 [7], 11.2 µM; in the data set on SF-295 [25], 0.49 µM. Also, the values for the 50% inhibitory concentration (IC50) with MDA-MB-435 [26] and in the data set on SF-295 [27] were 1.95 µM and 2.33 µM, respectively.

Values taken from ChEMBL document CHEMBL5241072, “Overview of piperlongumine analogues and their therapeutic potential” (Eur J Med Chem, 2021).
